Activity calls are given as the source filed them. The calls are words filed in the database; no cut-off is given here.
Experiments:
K562 = assay: Growth inhibition of human K562 cells incubated for 48 hrs by sulforhodamine B assay; format: functional; conditions: K562, 48 h
C6 [1] = assay: Cell cycle arrest in rat C6 cells assessed as decrease in cell population at G2/M phase measured after 24 hrs by propidium iodide staining based flow cytometry analysis; format: functional
BT-549 = assay: Growth inhibition of human BT549 cells incubated for 48 hrs by sulforhodamine B assay; format: functional; conditions: BT-549, 48 h
Hs-578T = assay: Growth inhibition of human Hs578T cells incubated for 48 hrs by sulforhodamine B assay; format: functional
U-251 = assay: Growth inhibition of human U251 cells incubated for 48 hrs by sulforhodamine B assay; format: functional; conditions: U-251, 48 h
OVCAR-4 = assay: Growth inhibition of human OVCAR4 cells incubated for 48 hrs by sulforhodamine B assay; format: functional; conditions: OVCAR-4, 48 h
C6 [2] = assay: Cell cycle arrest in rat C6 cells assessed as cell population at G0/G1 phase measured after 24 hrs by propidium iodide staining based flow cytometry analysis; format: functional
M14 = assay: Growth inhibition of human M14 cells incubated for 48 hrs by sulforhodamine B assay; format: functional; conditions: M14, 48 h
CCRF-CEM = assay: Growth inhibition of human CCRF-CEM cells at 10^-5 M incubated for 48 hrs by sulforhodamine B assay relative to control; format: functional; conditions: read-out: GI
NCI-H522 = assay: Growth inhibition of human NCI-H522 cells incubated for 48 hrs by sulforhodamine B assay; format: functional; conditions: NCI-H522, 48 h
T47D = assay: Growth inhibition of human T47D cells incubated for 48 hrs by sulforhodamine B assay; format: functional
MOLT-4 = assay: Growth inhibition of human MOLT4 cells at 10^-5 M incubated for 48 hrs by sulforhodamine B assay relative to control; format: functional; conditions: MOLT-4, 48 h, read-out: GI
MDA-MB-468 = assay: Growth inhibition of human MDA-MB-468 cells incubated for 48 hrs by sulforhodamine B assay; format: functional; conditions: MDA-MB-468, 48 h
[3] = molecular target: T1, Dihydrofolate reductase (Homo sapiens) (UniProt P00374); assay: Binding affinity to human dihydrofolate reductase at 5 uM assessed as decrease in absorption band by UV-visible spectroscopic analysis
T1 sequence (whole entry): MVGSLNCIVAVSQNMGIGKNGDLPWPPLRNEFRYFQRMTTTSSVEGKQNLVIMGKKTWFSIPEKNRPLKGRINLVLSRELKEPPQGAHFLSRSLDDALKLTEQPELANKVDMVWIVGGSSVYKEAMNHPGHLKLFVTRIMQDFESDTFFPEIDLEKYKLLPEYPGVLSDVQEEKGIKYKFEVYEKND

RXF 393 = assay: Growth inhibition of human RXF393 cells incubated for 48 hrs by sulforhodamine B assay; format: functional; conditions: RXF 393, 48 h
DU-145 = assay: Growth inhibition of human DU145 cells incubated for 48 hrs by sulforhodamine B assay; format: functional; conditions: DU-145, 48 h
SK-MEL-2 = assay: Growth inhibition of human SK-MEL-2 cells incubated for 48 hrs by sulforhodamine B assay; format: functional; conditions: SK-MEL-2, 48 h
SF-539 = assay: Growth inhibition of human SF539 cells incubated for 48 hrs by sulforhodamine B assay; format: functional; conditions: SF-539, 48 h
SNB-75 = assay: Growth inhibition of human SNB75 cells incubated for 48 hrs by sulforhodamine B assay; format: functional; conditions: SNB-75, 48 h
UO-31 = assay: Growth inhibition of human UO31 cells at 10^-5 M incubated for 48 hrs by sulforhodamine B assay relative to control; format: functional; conditions: UO-31, 48 h, read-out: GI
SF-295 = assay: Growth inhibition of human SF295 cells incubated for 48 hrs by sulforhodamine B assay; format: functional; conditions: SF-295, 48 h
RPMI-8226 = assay: Growth inhibition of human RPMI8226 cells incubated for 48 hrs by sulforhodamine B assay; format: functional; conditions: RPMI-8226, 48 h
HCC 2998 = assay: Growth inhibition of human HCC2998 cells incubated for 48 hrs by sulforhodamine B assay; format: functional; conditions: HCC 2998, 48 h
LOX IMVI = assay: Growth inhibition of human LOXIMVI cells incubated for 48 hrs by sulforhodamine B assay; format: functional
NCI-H322M = assay: Growth inhibition of human NCI-H322M cells incubated for 48 hrs by sulforhodamine B assay; format: functional
COLO 205 = assay: Growth inhibition of human COLO205 cells incubated for 48 hrs by sulforhodamine B assay; format: functional; conditions: COLO 205, 48 h
MCF7 = assay: Growth inhibition of human MCF7 cells at 10^-5 M incubated for 48 hrs by sulforhodamine B assay relative to control; format: functional; conditions: MCF7, 48 h, read-out: GI
ACHN = assay: Growth inhibition of human ACHN cells incubated for 48 hrs by sulforhodamine B assay; format: functional
SN12C = assay: Growth inhibition of human SN12C cells incubated for 48 hrs by sulforhodamine B assay; format: functional
A498 = assay: Growth inhibition of human A498 cells incubated for 48 hrs by sulforhodamine B assay; format: functional; conditions: A498, 48 h
IGROV-1 = assay: Growth inhibition of human IGROV1 cells at 10^-5 M incubated for 48 hrs by sulforhodamine B assay relative to control; format: functional; conditions: IGROV-1, 48 h, read-out: GI
[4] = read-out: pLC50 (the source's name) (converted)
[5] = read-out: LC50 (the source's name)

O=c1c2ccccc2n(CC2CO2)c2ccccc12 (racemic)
GI50 (K562): 214 nM | CC50 (K562; [4]): > 100000 nM | TGI (K562; read-out: pTGI): > 100000 nM | inhibition (C6 [1]): Active | GI50 (BT-549): 339 nM | CC50 (BT-549; [4]): 66100 nM | TGI (BT-549; read-out: pTGI (converted)): 3160 nM | GI50 (Hs-578T): 575 nM | CC50 (Hs-578T; [4]): > 100000 nM | TGI (Hs-578T; read-out: pTGI (converted)): 3890 nM | GI50 (U-251): 282 nM | CC50 (U-251; [4]): > 100000 nM | TGI (U-251; read-out: pTGI (converted)): 1350 nM | GI50 (OVCAR-4): 813 nM | CC50 (OVCAR-4; [4]): > 100000 nM | TGI (OVCAR-4; read-out: pTGI (converted)): 3980 nM | Activity (C6 [2]): inactive | GI50 (M14): 331 nM | CC50 (M14; [4]): 6170 nM | TGI (M14; read-out: pTGI (converted)): 1510 nM | inhibition of growth at 10 µM (CCRF-CEM): 93% | GI50 (NCI-H522): 372 nM | CC50 (NCI-H522; [4]): 19500 nM | TGI (NCI-H522; read-out: pTGI (converted)): 1320 nM | GI50 (T47D): 891 nM | CC50 (T47D; [4]): > 100000 nM | TGI (T47D; read-out: pTGI (converted)): 5500 nM | inhibition of growth at 10 µM (MOLT-4): 100% | GI50 (MDA-MB-468): 1200 nM | CC50 (MDA-MB-468; [4]): 7940 nM | TGI (MDA-MB-468; read-out: pTGI (converted)): 3090 nM | Activity [3]: Active | GI50 (RXF 393): 214 nM | CC50 (RXF 393; [4]): 2290 nM | TGI (RXF 393; read-out: pTGI (converted)): 513 nM | GI50 (DU-145): 347 nM | CC50 (DU-145; [4]): > 100000 nM | TGI (DU-145; read-out: pTGI (converted)): 1480 nM | GI50 (SK-MEL-2): 234 nM | CC50 (SK-MEL-2; [4]): 2040 nM | TGI (SK-MEL-2; read-out: pTGI (converted)): 513 nM | GI50 (SF-539): 347 nM | CC50 (SF-539; [4]): > 100000 nM | TGI (SF-539; read-out: pTGI (converted)): 1780 nM | GI50 (SNB-75): 269 nM | CC50 (SNB-75; [4]): 6310 nM | TGI (SNB-75; read-out: pTGI (converted)): 1860 nM | inhibition of growth at 10 µM (UO-31): 100% | GI50 (SF-295): 603 nM | CC50 (SF-295; [4]): > 100000 nM | TGI (SF-295; read-out: pTGI (converted)): 4270 nM | GI50 (RPMI-8226): 302 nM | CC50 (RPMI-8226; [4]): > 100000 nM | TGI (RPMI-8226; read-out: pTGI (converted)): 1100 nM | GI50 (HCC 2998): 275 nM | CC50 (HCC 2998; [4]): 10000 nM | TGI (HCC 2998; read-out: pTGI (converted)): 1020 nM | GI50 (LOX IMVI; read-out: GI50): 120 nM | CC50 (LOX IMVI; [5]): 5120 nM | GI50 (LOX IMVI; read-out: pGI50 (converted)): 126 nM | CC50 (LOX IMVI; [4]): 5130 nM | TGI (LOX IMVI; read-out: pTGI (converted)): 646 nM | GI50 (NCI-H322M): 2000 nM | CC50 (NCI-H322M; [4]): > 100000 nM | TGI (NCI-H322M; read-out: pTGI (converted)): 7760 nM | GI50 (COLO 205): 245 nM | CC50 (COLO 205; [4]): 64600 nM | TGI (COLO 205; read-out: pTGI (converted)): 1410 nM | inhibition of growth at 10 µM (MCF7): 100% | GI50 (ACHN; read-out: GI50): 90 nM | CC50 (ACHN; [5]): 790 nM | GI50 (ACHN; read-out: pGI50 (converted)): 95.5 nM | CC50 (ACHN; [4]): 794 nM | TGI (ACHN; read-out: pTGI (converted)): 282 nM | GI50 (SN12C): 229 nM | CC50 (SN12C; [4]): 6170 nM | TGI (SN12C; read-out: pTGI (converted)): 1200 nM | GI50 (A498): 1740 nM | CC50 (A498; [4]): 7240 nM | TGI (A498; read-out: pTGI (converted)): 3550 nM | inhibition of growth at 10 µM (IGROV-1): 100%

Reference: ChEMBL document CHEMBL4359904, “Structural tuning of acridones for developing anticancer agents targeting dihydrofolate reductase” (Bioorg Med Chem Lett, 2019)
